Results on 1 substance are retold here after patent publication US20240060113A1, “PRESERVATION OF FETAL NUCLEIC ACIDS IN MATERNAL PLASMA” (STRECK LLC, priority 2009, published 2024).

The assay has as its system non-human (lambda) DNA. The assay can be described thus: Lambda DNA spiked into plasma, stored at room temperature, Quantitative PCR (Example 2, FIG. 3). Conditions: plasma stored at room temperature 0 to 14 days. The method, then: Blood samples from the same donor are drawn into two different types of blood collection tubes. One tube contains 500 g/L IDU, 81 g/L Tripotassium EDTA and 47 g/L glycine. The other tube contains only Heparin. All samples are centrifuged at 2100 g for 30 minutes at room temperature to separate the plasma. The plasma is then transferred to new tubes and non-human (lambda) DNA is then spiked into the plasma tubes. The spiked samples are then stored at room temperature for 0, 1, 2, 3, 4, 7, 11, and 14 days. Free circulating DNA is purified using the QIAamp® DNA Blood Mini Kit available from QIAGEN Inc. (Valencia, CA). DNA is extracted from each plasma sample. The samples are then amplified by Quantitative PCR (using iQ SYBR Green Supermix reagents available from BIO-RAD Laboratories (Hercules, California)) to identify the amount of lambda DNA present. […] The expected results of this example are shown in graphic format at FIG. 3. This example confirms that the compositions of the present invention are able to maintain the integrity and amount of DNA present in a blood sample.

In the case of Heparin, the “relative percentage of lambda DNA present” value was “decreases at every consecutive measurement”.
